One series deals with MRSA strains. Briefly: Antibiotic assay (absorption 660 nm, Example 2), MRSA strains. The series is classed as cell-based, Staphylococcus aureus. How it is done: (§1) Antibiotic agents. Gentamicin sulfate was provided by Calbiochem. Chloramphenicol was provided by Sigma-Aldrich.
(§2) Antibiotic assay. […] The bacteria strains were inoculated in nutrients broth. […] All bacteria were plated in nutrients broth at a concentration of 450 000 bacteria/m L.
(§3) Compounds IV to XXI were diluted in dimethylsulfoxide. […] The compounds were tested at 8 different concentrations.
(§4) Each well contained: 100 μL of bacteria, 100 μL of the compounds tested. The plates were incubated at 37° C. for 6 h. The absorption was read using a Varioskan flash multimode Reader™ (Thermo Scientific) at 660 nm.
(§5) MRSA. Ten (10) strains of MRSA obtained as described above were tested along with an S. aureus wild type (WT) strain (ATCC 25923).

Series [1] has as its system S. aureus wild type strain (ATCC 25923). Nature of the series: Antibiotic assay (absorption 660 nm, Example 2), S. aureus wild type. The series is classed as cell-based, Staphylococcus aureus. The note with it: for MIC: S. aureus WT (ATCC 25923); for S. aureus WT ATCC 25923 (toxicity on bacteria): Table 7, same values as MIC of Table 6. How it is done:
as §1, §2, §3, §4, §5

The subject of a further series is WS-1 cell lines. Briefly: Cytotoxicity assay on WS-1 (Example 2). The series is classed as cell-based. The arrangement: unit not given here. The note with it: Table 7; WS-1, 48 h. How it is done:
Cytotoxicity assay. […] The WS-1 cell lines were provided by ATCC. […] The compounds tested were then added at 8 different concentrations. […] In Table 7, the therapeutic indexes of compounds IV to XXI are presented.

Data on five compounds can be found in patent US9499509B2, “Dihydrochalcone derivatives and their use as antibiotic agents” (UNIVERSITÉ DU QUÉBEC À CHICOUTIMI, priority 2012, dated 2016).

Converted amounts (≈) assume the structure as drawn. Bounds are passed on as bounds.

For `COc1cc(O)c(C(=O)CCc2ccc(O)cc2)c2c1CC[C@@H](c1ccc(O)cc1)O2` [XI], the MIC in the series with MRSA strains (MRSA 1), with MRSA strains (MRSA 2), against MRSA strains (MRSA 3), against MRSA strains (MRSA 4), in the series on MRSA strains (MRSA 5) and against MRSA strains (MRSA 6) was less than 0.39 µM each time. The MIC (in the series on MRSA strains (MRSA 7); in the series with MRSA strains (MRSA 8); against MRSA strains (MRSA 9); in the series with MRSA strains (MRSA 10); in series [1]) was less than 0.39 µM in each case. In addition, the “S. aureus WT ATCC 25923 (toxicity on bacteria)” value in series [1] is recorded as less than 0.39. Also, the “WS-1 (toxicity on normal cells, fibroblast)” value in the series with WS-1 cell lines is reported as greater than 50.

For the compound `O=C(CCc1ccccc1)c1c(O)cc(O)c2c1OC(c1ccc(O)cc1)C(O)C2` (centres unmarked) [XVIII], the MIC turned out to be 12 ± 1 µM (≈ 4.88 µg/mL) against MRSA strains (MRSA 1); 14 ± 1 µM (≈ 5.69 µg/mL) against MRSA strains (MRSA 2); 15.9 ± 0.8 µM (≈ 6.46 µg/mL) against MRSA strains (MRSA 3); 15 ± 1 µM (≈ 6.1 µg/mL) against MRSA strains (MRSA 4); 11.5 ± 0.4 µM (≈ 4.67 µg/mL) against MRSA strains (MRSA 5); 11 ± 2 µM (≈ 4.47 µg/mL) in the series with MRSA strains (MRSA 6). Further, the MIC against MRSA strains (MRSA 7) amounted to 7.5 ± 0.4 µM (≈ 3.05 µg/mL); in the series with MRSA strains (MRSA 8) it was 9.5 ± 1.0 µM (≈ 3.86 µg/mL); against MRSA strains (MRSA 9), 13 ± 2 µM (≈ 5.28 µg/mL); with MRSA strains (MRSA 10), 12 ± 1 µM (≈ 4.88 µg/mL); in series [1] it was 9.9 ± 0.7 µM (≈ 4.02 µg/mL). Also, the “S. aureus WT ATCC 25923 (toxicity on bacteria)” value in series [1] was 9.9 ± 0.7. In the series on WS-1 cell lines, the “WS-1 (toxicity on normal cells, fibroblast)” value is recorded as greater than 50.

As for `O=C(CCc1ccccc1)c1c(O)cc(O)c2c1OC(c1ccc(O)cc1)C(O)C2` (centres unmarked) [XVII], the MIC in the series on MRSA strains (MRSA 1) came out at 13 ± 1 µM (≈ 5.28 µg/mL); against MRSA strains (MRSA 2), 12 ± 1 µM (≈ 4.88 µg/mL); in the series with MRSA strains (MRSA 3), 16.7 ± 0.5 µM (≈ 6.79 µg/mL); against MRSA strains (MRSA 4) it was 15 ± 1 µM (≈ 6.1 µg/mL); in the series on MRSA strains (MRSA 5) it was 5.1 ± 0.2 µM (≈ 2.07 µg/mL); against MRSA strains (MRSA 6), 6 ± 2 µM (≈ 2.44 µg/mL). Besides, the MIC in the series on MRSA strains (MRSA 7) is 8.2 ± 0.7 µM (≈ 3.33 µg/mL); in the series on MRSA strains (MRSA 8), 10.2 ± 0.8 µM (≈ 4.15 µg/mL); against MRSA strains (MRSA 9), 17 ± 1 µM (≈ 6.91 µg/mL); with MRSA strains (MRSA 10), 17 ± 1 µM (≈ 6.91 µg/mL); in series [1] it was 13.0 ± 0.8 µM (≈ 5.28 µg/mL). For the same compound, the “S. aureus WT ATCC 25923 (toxicity on bacteria)” value in series [1] is on record as 13.0 ± 0.8. In addition, in the series on WS-1 cell lines, the “WS-1 (toxicity on normal cells, fibroblast)” value is given as greater than 50.

Regarding `O=C(CCc1ccccc1)c1c(O)cc2c(c1O)CC(O)C(c1ccc(O)cc1)O2` (centres unmarked) [XV], the MIC in the series on MRSA strains (MRSA 1) is 24.3 ± 0.9 µM (≈ 9.88 µg/mL); with MRSA strains (MRSA 2), 27 ± 1 µM (≈ 11 µg/mL); in the series on MRSA strains (MRSA 3), 29 ± 3 µM (≈ 11.8 µg/mL); with MRSA strains (MRSA 4), 22 ± 2 µM (≈ 8.94 µg/mL); against MRSA strains (MRSA 5), 18 ± 2 µM (≈ 7.32 µg/mL); in the series with MRSA strains (MRSA 6), 18.9 ± 0.4 µM (≈ 7.68 µg/mL). The MIC was determined as 20 ± 1 µM (≈ 8.13 µg/mL) against MRSA strains (MRSA 7); 17 ± 2 µM (≈ 6.91 µg/mL) in the series on MRSA strains (MRSA 8); 30 ± 1 µM (≈ 12.2 µg/mL) in the series with MRSA strains (MRSA 9); 7.8 ± 0.3 µM (≈ 3.17 µg/mL) with MRSA strains (MRSA 10); 13 ± 1 µM (≈ 5.28 µg/mL) in series [1]. Also, the “S. aureus WT ATCC 25923 (toxicity on bacteria)” value in series [1] was 13 ± 1. Also, in the series with WS-1 cell lines, the “WS-1 (toxicity on normal cells, fibroblast)” value was greater than 50.

For the compound `COc1ccc(CCC(=O)c2c(O)cc(O)c3c2OC(c2ccc(O)cc2)C(O)C3)cc1` (centres unmarked) [XXI], the MIC in the series on MRSA strains (MRSA 1) is 17 ± 2 µM (≈ 7.42 µg/mL); with MRSA strains (MRSA 2), 7 ± 2 µM (≈ 3.06 µg/mL); against MRSA strains (MRSA 3) it was 8.5 ± 0.6 µM (≈ 3.71 µg/mL); with MRSA strains (MRSA 4), 12.3 ± 0.5 µM (≈ 5.37 µg/mL); in the series on MRSA strains (MRSA 5), 7.7 ± 0.6 µM (≈ 3.36 µg/mL); in the series on MRSA strains (MRSA 6), 12 ± 1 µM (≈ 5.24 µg/mL). Also, the MIC in the series on MRSA strains (MRSA 7) amounted to 11.4 ± 0.5 µM (≈ 4.98 µg/mL); against MRSA strains (MRSA 8), 8.2 ± 0.2 µM (≈ 3.58 µg/mL); against MRSA strains (MRSA 9), 10.8 ± 0.8 µM (≈ 4.71 µg/mL); against MRSA strains (MRSA 10), 12 ± 1 µM (≈ 5.24 µg/mL); in series [1], 28 ± 2 µM (≈ 12.2 µg/mL). Further, the “S. aureus WT ATCC 25923 (toxicity on bacteria)” value in series [1] came out at 28 ± 2. The “WS-1 (toxicity on normal cells, fibroblast)” value with WS-1 cell lines is given as greater than 50.

As usually defined, the MIC is the least concentration at which growth counts as inhibited.
